Series [1] concerns the target T1, hPPARβ (Homo sapiens, UniProt Q03181).
T1 sequence (Q03181 171-441 limits assumed): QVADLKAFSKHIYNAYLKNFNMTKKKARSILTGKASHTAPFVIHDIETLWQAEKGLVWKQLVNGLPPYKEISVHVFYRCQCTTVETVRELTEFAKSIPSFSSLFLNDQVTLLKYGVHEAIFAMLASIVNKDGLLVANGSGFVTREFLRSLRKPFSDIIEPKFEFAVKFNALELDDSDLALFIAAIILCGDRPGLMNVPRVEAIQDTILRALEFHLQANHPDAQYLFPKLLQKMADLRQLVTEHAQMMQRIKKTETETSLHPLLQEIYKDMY
The series is described as follows: Transient transfection assay in HepG2 cells, Gal4-hPPARβ chimeric receptor, luciferase reporter. It is filed as cell-based. Conditions: Hep G2-hBeta EC50, 24 hours incubation; read-out: EC50β nM (Group). The method, then: (§1) 1. Test A. Transient Transfections Assay using the HepG2 Hepatoma Cell Line.
(§2) HepG2 cells were transiently transfected with an expression plasmids encoding hPPARα, hPPARβ or mPPARγ chimeric receptors and a reporter containing the yeast upstream activating sequence (UAS) upstream of the viral E1B promoter controlling a luciferase reporter gene. In addition, the plasmid pRSVβ-gal was used to control for transfection efficiency. HepG2 cells were grown in DMEM supplemented with 10% FBS and 1 μM non-essential amino acid. On the first day, cells were split into 100 mm dishes at 2.5×10^6/dish and incubated overnight at 37° C./5% CO2. On the second day the cells were transiently transfected with plasmid DNA encoding a chimeric receptor, the luciferase reporter gene; and β-gal. For each 100 mm dish, 15 μg of lucifease reporter (PG5E1b) DNA, 15 μg of Gal4-PPAR chimeric receptor DNA, and 1.5 μg of β-gal plasmid DNA were mixed with 1.4 ml of opti-MEM in the tube. 28 μl of LipoFectamine-2000 reagent was added to 1.4 ml of opti-MEM in the tube, and incubate for 5 min at RT. The diluted Lipofectamine-2000 reagent was combined with the DNA mixture, and incubate for 20 min at RT. After fresh medium was added to each 100 mm dish of cells, 2.8 ml of Lipofectamine2000-DNA mixture was added dropwise to the 100 mm dish containing 14 ml of medium, and incubate 37° C. overnight. On day three cells were trypsinized off the 100 mm dishes and re-plated on 96 well plates. Cells were plated at 2.5×10^4 cells per well in 150 μl of media and 50 μl of compound diluted by media was added. The test compound added were in the range from 50 μM to 50 pM. After addition of compounds, the plates were incubated at 37° C. for 24 hours. Subsequently cells were washed with once with 100 μl of PBS, lysed, and processed for measuring luciferase and β-gal activity using Dual-Light luciferase kit from Tropix ®, according to the manufacturer's recommendations, on an EG&G Bethold MicroLumat LB96P luminometer. EC50 values were obtained using the GraphPad Prism™ program.
(A reporter such as luciferase makes a cellular process visible.)

The target of series [2] is T2, hPPARα (Homo sapiens, UniProt Q07869).
T2 sequence (Q07869 200-468 limits assumed): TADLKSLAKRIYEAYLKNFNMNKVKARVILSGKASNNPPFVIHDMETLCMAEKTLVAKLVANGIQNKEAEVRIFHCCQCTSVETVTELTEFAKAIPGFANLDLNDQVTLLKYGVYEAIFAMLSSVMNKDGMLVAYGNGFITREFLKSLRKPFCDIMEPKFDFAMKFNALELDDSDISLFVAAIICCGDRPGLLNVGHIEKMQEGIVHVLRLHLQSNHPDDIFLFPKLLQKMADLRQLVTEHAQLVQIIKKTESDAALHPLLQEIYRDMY
The series is described as follows: Transient transfection assay in HepG2 cells, Gal4-hPPARα chimeric receptor, luciferase reporter. It is filed as cell-based. Conditions: Hep G2-hAlpha EC50, 24 hours incubation; read-out: EC50α nM (Group). As for the experimental part: as §1, §2

Usually melting point stands for the temperature of the solid-liquid transition.

Regarding `COc1cc(OCC(=O)O)c(C)cc1SCc1ccc(-c2ccc(C(F)(F)F)cn2)cc1` [Example 18, {5-Methoxy-2-methyl-4-[4-(5-trifluoromethyl-pyridin-2-yl)-benzylsulfanyl]-phenoxy}-acetic acid], the melting point was 225 °C (dec.). Also, the EC50 in series [1] was less than 300 nM. For the same compound, the EC50 in series [2] was greater than 5000 nM.
Take `COc1ccc(COc2ccc(CSc3ccc(OCC(=O)O)c(C)c3)cc2)cc1` [Example 33, {4-[4-(4-Methoxy-benzyloxy)-benzylsulfanyl]-2-methyl-phenoxy}-acetic acid]: the melting point lay in the range of 150 to 152 °C. In series [1], the EC50 lay within 1000 to 2000 nM. In series [2], the EC50 fell in the range of 1000 to 2000 nM.
Compound `Cc1cc(SCc2ccc(-c3ccc(C(F)(F)F)cn3)cc2)c2c(c1OCC(=O)O)CCC2` [Example 27, {5-Methyl-7-[4-(5-trifluoromethyl-pyridin-2-yl)-benzylsulfanyl]-indan-4-yloxy}-acetic acid] registered a melting point of 186 °C. Besides, in series [1], the EC50 was in the range of 2000 to 5000 nM. Further, the EC50 in series [2] lay in the range of 500 to 1000 nM.
The compound `Cc1cc(SCc2ccc(-c3ccc(C(F)(F)F)cn3)cc2)c2c(c1OCC(=O)O)CCO2` [Example 92, {5-Methyl-7-[4-(5-trifluoromethyl-pyridin-2-yl)-benzylsulfanyl]-2,3-dihydro-benzofuran-4-yxoly}-acetic acid] yielded a melting point of 155 to 157 °C. In addition, the EC50 in series [1] is less than 300 nM. The EC50 in series [2] is less than 300 nM.
With `COc1cc(OCC(=O)O)c(C)cc1SCc1ccc(-c2ccc(C(F)(F)F)cc2)nc1` [Example 19, {5-Methoxy-2-methyl-4-[6-(4-trifluoromethyl-phenyl)-pyridin-3-ylmethylsulfanyl]-phenoxy}-acetic acid], the melting point is 203 °C (dec.). Also, the EC50 in series [1] was less than 300 nM. The EC50 in series [2] was less than 300 nM.
For `O=C(O)COc1ccc(SCc2cc(-c3ccc(Cl)cc3)on2)c2c1CCC2` [Example 97, {7-[5-(4-Chloro-phenyl)-isoxazol-3-ylmethylsulfanyl]-indan-4-yloxy}-acetic acid], the melting point fell in the range of 157 to 159 °C. In series [1], the EC50 is 500 to 1000 nM. Also, in series [2], the EC50 was greater than 5000 nM.
On the same counts, the results for `Cc1cc(SCCc2ccc(-c3ccc(C(F)(F)F)cc3)cc2)ccc1OCC(=O)O` [Example 22, {2-Methyl-4-[2-(4′-trifluoromethyl-biphenyl-4-yl)-ethylsulfanyl]-phenoxy}-acetic acid] are 132 to 134 °C, 1000 to 2000 nM and 500 to 1000 nM.
On the same counts, the results for `COc1cc(OCC(=O)O)c(C)cc1SCc1cccc(-c2cccc(OC(F)(F)F)c2)c1` [Example 16, [5-Methoxy-2-methyl-4-(3′-trifluoromethoxy-biphenyl-3-ylmethylsulfanyl)-phenoxy]-acetic acid] are 92 to 94 °C, less than 300 nM and less than 300 nM.
Consider `Cc1cc(SCc2ccc(-c3ccc(C(F)(F)F)cc3)cc2)c2c(c1OCC(=O)O)CCC2` [Example 28, [5-Methyl-7-(4′-trifluoromethyl-biphenyl-4-ylmethylsulfanyl)-indan-4-yloxy]-acetic acid], for which the melting point is 177 °C. Further, the EC50 in series [1] fell in the range of 1000 to 2000 nM. Further, in series [2], the EC50 was in the range of 1000 to 2000 nM.
The compound `Cc1cc(SCc2ccc(-c3ccc(C(F)(F)F)cn3)cc2)c2c(c1OCC(=O)O)CCCO2` [Example 36, {6-Methyl-8-[4-(5-trifluoromethyl-pyridine-2-yl)-benzylsulfanyl]-chroman-5-yloxy}-acetic acid] registered a melting point of 156 to 157 °C. Further, the EC50 in series [1] fell in the range of 2000 to 5000 nM. In series [2], the EC50 was less than 300 nM.
`Cc1cc(SCc2ccc(OCc3cc(Cl)ccc3Cl)cc2)ccc1OCC(=O)O` [Example 59]: the melting point lay in the range of 101 to 103 °C. For the same compound, in series [1], the EC50 lay within 1000 to 2000 nM. Moreover, the EC50 in series [2] is greater than 5000 nM.
Compound `O=C(O)COc1ccc(SCc2ccccc2OCc2ccc(C(F)(F)F)cc2)c2c1CCC2` [Example 81, {7-[2-(4-Trifluoromethyl-benzyloxy)-benzylsulfanyl]-indan-4-yloxy}-acetic acid] came in with a melting point of 150 to 152 °C. Moreover, the EC50 in series [1] is less than 300 nM. The EC50 in series [2] is greater than 5000 nM.
For `COc1cc(OCC(=O)O)c(C)cc1SCc1cc(-c2ccc(Cl)cc2)on1` [Example 41, {4-[5-(4-Chloro-phenyl)-isoxazol-3-ylmethylsulfanyl]-5-methoxy-2-methyl-phenoxy}-acetic acid], the EC50 in series [1] is less than 300 nM; in series [2], 2000 to 5000 nM.
Regarding `COc1cc(OCC(=O)O)c(C)cc1SCc1ccc(-c2ccc(F)cc2)cc1` [Example 10, [4-(4′-Fluoro-biphenyl-4-ylmethylsulfanyl)-5-methoxy-2-methyl-phenoxy]-acetic acid], the EC50 is less than 300 nM in series [1] and 300 to 500 nM in series [2].
Regarding `COc1cc(OCC(=O)O)c(C)cc1SCc1ccc(-c2cccc(OC(F)(F)F)c2)cc1` [Example 11, [5-Methoxy-2-methyl-4-(3′-trifluoromethoxy-biphenyl-4-ylmethylsulfanyl)-phenoxy]-acetic acid], the EC50 in series [1] is less than 300 nM; in series [2], 500 to 1000 nM.
Compound `O=C(O)COc1ccc(SCc2cccc(OCc3ccc(C(F)(F)F)cc3)c2)c2c1CCCO2` [Example 84, {8-[3-(4-Trifluoromethyl-benzyloxy)-benzylsulfanyl]-chroman-5-yloxy}-acetic acid] showed a melting point of 113 to 115 °C. Further, the EC50 in series [2] is greater than 5000 nM.
Consider `Cc1cc(SCc2ccc3c(c2)Cc2ccccc2-3)ccc1OCC(=O)O` [Example 17], for which the EC50 lay within 1000 to 2000 nM in series [1] and 2000 to 5000 nM in series [2].
Turning to `COc1cc(OCC(=O)O)c(C)cc1SCc1ccc(OCc2ccc(C(F)(F)F)cc2)cc1` [Example 14, {5-Methoxy-2-methyl-4-[4-(4-trifluoromethyl-benzyloxy)-benzylsulfanyl]-phenoxy}-acetic acid], the melting point is 145 °C. Besides, the EC50 in series [2] was less than 300 nM.
As for `O=C(O)COc1ccc(SCc2cc(-c3ccc(C(F)(F)F)cc3)on2)c2c1CCC2` [Example 44, {7-[5-(4-Trifluoromethyl-phenyl)-isoxazol-3-ylmethylsulfanyl]-indan-4-yloxy}-acetic acid], the EC50 in series [1] is 500 to 1000 nM; in series [2], greater than 5000 nM.
In turn, `O=C(O)COc1ccc(SCc2ccc(OCc3ccc(C(F)(F)F)cc3)cc2)c2c1CCC2` [Example 63, {7-[4-(4-Trifluoromethyl-benzyloxy)-benzylsulfanyl]-indan-4-yloxy}-acetic acid] gave a melting point of 145 °C. Moreover, the EC50 in series [2] was in the range of 2000 to 5000 nM.
Consider `COc1cc(OCC(=O)O)c(C)cc1SCc1cc(-c2ccc(C(F)(F)F)cc2)on1` [Example 43, {5-Methoxy-2-methyl-4-[5-(4-trifluoromethyl-phenyl)-isoxazol-3-ylmethylsulfanyl]-phenoxy}-acetic acid], for which the EC50 was less than 300 nM in series [1] and 500 to 1000 nM in series [2].
Consider `CCCc1cc(SCc2ccc(-c3ccc(C(F)(F)F)cc3)cc2)ccc1OCC(=O)O` [Example 52, [2-Propyl-4-(4′-trifluoromethyl-biphenyl-4-ylmethylsulfanyl)-phenoxy]-acetic acid], for which the EC50 in series [1] is less than 300 nM; in series [2] it was 500 to 1000 nM.
As for `COc1cc(OCC(=O)O)ccc1SCc1ccc(-c2ccc(C(F)(F)F)cc2)cc1` [Example 21, [3-Methoxy-4-(4′-trifluoromethyl-biphenyl-4-ylmethylsulfanyl)-phenoxy]-acetic acid], the EC50 in series [1] and in series [2] was less than 300 nM throughout.
`COc1cc(OCC(=O)O)c(C)cc1SCc1ccc(-c2ccc(Cl)cc2Cl)cc1` [Example 7, [4-(2′,4′-Dichloro-biphenyl-4-ylmethylsulfanyl)-5-methoxy-2-methyl-phenoxy]-acetic acid]: the EC50 in series [1] and in series [2] was less than 300 nM throughout.

For the origin of these results see patent publication US6964983B2, “Compounds that modulate PPAR activity and methods for their preparation” (Warner-Lambert Company, LLC, priority 2002, dated 2005).
